Source: paper PMC7316778 (Nature Communications, 2020)
Several values for one entry are separate records, joined by “and”; a condition that tells them apart may be missing. Identical values can stand only once. Like-named read-outs stand apart in the source and are kept apart here.

Legend:
[1] = system: FES^S700C HL-60 neutrophils; assay: Neutrophil oxidative burst assay (NBT); type: cell-based, human
AMPK A1/B1/G1 = AMPK A1/B1/G1 (Homo sapiens, UniProt Q13131); assay: SelectScreen kinase assay
AMPK A1/B1/G1, sequence (Q13131 whole entry): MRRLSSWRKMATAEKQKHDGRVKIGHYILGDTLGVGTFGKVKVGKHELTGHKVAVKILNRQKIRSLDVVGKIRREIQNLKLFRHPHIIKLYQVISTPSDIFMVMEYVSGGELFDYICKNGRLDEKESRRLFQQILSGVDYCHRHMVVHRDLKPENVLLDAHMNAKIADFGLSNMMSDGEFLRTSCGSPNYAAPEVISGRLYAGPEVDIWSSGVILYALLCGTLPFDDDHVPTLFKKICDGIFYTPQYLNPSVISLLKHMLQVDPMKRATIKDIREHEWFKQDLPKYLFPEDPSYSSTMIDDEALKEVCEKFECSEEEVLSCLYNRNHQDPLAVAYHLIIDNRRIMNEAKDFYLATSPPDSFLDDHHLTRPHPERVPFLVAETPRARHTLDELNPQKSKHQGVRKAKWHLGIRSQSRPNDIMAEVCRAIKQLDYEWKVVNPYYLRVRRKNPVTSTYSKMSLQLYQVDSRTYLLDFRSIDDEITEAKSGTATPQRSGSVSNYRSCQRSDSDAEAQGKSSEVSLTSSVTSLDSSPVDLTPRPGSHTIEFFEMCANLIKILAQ
AMPK A1/B1/G1, sequence (Q9Y478 whole entry partner): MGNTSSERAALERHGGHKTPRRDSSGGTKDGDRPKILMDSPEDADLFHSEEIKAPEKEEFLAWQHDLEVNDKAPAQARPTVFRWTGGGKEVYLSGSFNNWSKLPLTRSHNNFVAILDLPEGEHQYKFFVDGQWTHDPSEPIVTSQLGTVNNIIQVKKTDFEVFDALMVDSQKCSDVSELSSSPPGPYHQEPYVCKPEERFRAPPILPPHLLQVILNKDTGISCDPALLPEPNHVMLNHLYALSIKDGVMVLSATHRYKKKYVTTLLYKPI
AMPK A1/B1/G1, sequence (P54619 whole entry partner): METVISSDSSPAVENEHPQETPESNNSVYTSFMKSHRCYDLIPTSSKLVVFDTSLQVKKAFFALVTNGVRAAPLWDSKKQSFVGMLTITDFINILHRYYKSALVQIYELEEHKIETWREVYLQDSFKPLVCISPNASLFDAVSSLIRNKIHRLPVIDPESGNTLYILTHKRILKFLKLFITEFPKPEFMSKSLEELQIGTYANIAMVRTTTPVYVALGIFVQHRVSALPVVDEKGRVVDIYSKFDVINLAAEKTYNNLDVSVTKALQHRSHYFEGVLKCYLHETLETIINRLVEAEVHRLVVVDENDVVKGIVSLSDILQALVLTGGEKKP
Method: (§1) Selectivity profiling assays were performed by the Invitrogen SelectScreen™ Services. […] The concentration of ATP was selected to be equal to the KM, unless indicated otherwise.

BMX = molecular target: T1, BMX (Homo sapiens, UniProt P51813); assay: SelectScreen kinase assay
T1 sequence (P51813 1-675): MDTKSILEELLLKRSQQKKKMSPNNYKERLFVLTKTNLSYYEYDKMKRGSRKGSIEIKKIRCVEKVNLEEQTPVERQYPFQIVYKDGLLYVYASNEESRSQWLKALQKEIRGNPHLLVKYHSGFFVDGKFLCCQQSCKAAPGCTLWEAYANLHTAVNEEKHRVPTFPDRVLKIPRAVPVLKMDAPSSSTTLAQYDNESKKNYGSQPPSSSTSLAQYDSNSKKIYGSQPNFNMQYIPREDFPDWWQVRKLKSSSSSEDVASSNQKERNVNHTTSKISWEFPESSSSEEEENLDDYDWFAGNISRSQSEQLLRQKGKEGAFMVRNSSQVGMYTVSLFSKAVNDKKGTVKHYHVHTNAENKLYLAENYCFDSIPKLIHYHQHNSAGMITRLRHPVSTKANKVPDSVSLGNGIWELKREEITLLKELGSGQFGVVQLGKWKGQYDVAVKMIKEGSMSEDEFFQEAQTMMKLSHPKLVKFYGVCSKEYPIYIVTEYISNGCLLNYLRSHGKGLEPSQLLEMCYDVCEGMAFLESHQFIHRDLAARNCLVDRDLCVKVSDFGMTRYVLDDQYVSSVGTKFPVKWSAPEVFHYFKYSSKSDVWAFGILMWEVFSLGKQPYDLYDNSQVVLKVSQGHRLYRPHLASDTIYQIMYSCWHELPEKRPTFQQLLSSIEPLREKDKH
Method: as §1

CDKL5 = molecular target: T2, CDKL5 (Homo sapiens, UniProt O76039); assay: SelectScreen kinase assay
T2 sequence (O76039 1-960): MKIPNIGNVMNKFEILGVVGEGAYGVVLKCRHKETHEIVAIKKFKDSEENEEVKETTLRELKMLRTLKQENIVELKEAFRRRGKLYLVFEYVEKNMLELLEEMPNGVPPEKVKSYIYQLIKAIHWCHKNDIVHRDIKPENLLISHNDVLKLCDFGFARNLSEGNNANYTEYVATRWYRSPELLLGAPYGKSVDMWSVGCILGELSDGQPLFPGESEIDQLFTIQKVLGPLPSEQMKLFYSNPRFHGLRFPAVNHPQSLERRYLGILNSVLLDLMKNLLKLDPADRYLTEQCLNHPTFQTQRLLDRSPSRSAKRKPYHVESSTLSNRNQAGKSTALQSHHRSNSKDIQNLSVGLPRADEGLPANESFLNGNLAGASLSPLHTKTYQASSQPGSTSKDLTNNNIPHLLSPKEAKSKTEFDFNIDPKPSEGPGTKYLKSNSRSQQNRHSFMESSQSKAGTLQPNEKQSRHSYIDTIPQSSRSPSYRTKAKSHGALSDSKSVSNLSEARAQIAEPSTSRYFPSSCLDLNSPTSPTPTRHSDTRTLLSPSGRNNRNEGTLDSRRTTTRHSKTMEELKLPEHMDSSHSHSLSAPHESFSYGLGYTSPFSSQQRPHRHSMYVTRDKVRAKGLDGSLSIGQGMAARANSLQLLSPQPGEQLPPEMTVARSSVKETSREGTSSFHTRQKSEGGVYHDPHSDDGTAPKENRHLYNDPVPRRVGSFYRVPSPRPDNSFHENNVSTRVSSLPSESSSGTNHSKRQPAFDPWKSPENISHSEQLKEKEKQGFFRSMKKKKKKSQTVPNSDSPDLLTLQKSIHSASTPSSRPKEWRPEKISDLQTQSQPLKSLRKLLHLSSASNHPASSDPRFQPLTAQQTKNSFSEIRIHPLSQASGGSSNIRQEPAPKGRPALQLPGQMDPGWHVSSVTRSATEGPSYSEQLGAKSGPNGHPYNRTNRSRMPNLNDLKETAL
Method: as §1

JAK3 = molecular target: T3, JAK3 (Homo sapiens, UniProt P52333); assay: SelectScreen kinase assay
T3 sequence (P52333 1-1124): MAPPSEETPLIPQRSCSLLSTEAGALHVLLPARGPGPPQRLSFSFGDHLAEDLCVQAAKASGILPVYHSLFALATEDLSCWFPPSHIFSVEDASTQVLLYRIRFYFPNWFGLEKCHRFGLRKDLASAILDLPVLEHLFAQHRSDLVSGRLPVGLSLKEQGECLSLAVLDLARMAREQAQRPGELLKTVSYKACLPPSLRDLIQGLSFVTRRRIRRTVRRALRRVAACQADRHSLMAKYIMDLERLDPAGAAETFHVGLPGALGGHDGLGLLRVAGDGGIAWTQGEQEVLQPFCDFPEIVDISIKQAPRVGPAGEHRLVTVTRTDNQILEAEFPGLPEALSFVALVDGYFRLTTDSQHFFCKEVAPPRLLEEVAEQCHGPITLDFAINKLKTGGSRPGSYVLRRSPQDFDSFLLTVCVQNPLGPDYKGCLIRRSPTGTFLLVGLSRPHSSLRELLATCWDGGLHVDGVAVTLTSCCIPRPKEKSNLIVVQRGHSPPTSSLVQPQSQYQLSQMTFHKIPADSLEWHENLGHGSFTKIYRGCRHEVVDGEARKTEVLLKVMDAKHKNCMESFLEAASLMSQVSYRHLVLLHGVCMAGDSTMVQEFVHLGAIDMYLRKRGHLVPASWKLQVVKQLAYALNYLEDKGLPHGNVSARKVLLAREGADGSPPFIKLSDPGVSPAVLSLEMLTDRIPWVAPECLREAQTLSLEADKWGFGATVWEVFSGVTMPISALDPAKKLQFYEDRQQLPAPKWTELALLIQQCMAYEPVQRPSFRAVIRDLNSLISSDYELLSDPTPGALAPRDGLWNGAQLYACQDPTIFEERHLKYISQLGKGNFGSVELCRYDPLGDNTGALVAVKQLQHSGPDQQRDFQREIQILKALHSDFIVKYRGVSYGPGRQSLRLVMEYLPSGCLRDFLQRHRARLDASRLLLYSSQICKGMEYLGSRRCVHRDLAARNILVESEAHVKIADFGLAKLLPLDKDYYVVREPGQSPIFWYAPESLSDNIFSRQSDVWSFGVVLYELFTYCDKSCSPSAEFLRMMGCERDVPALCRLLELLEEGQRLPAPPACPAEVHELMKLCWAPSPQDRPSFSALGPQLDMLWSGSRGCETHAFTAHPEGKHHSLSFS
Method: as §1

[2] = 1 h, 1 μM WEL028, 1 h preincubation

C#CCOc1ccc(Nc2ncc(Cl)c(Nc3ccccc3NC(=O)C=C)n2)c(OC)c1 [Compound 6]
Formazan-positive cells (%) ([1]; 100 nM, Supplementary Figure 12f, individual replicates, listed as WEL028): 79.976% and 78.7671% and 73.0614%
Percentage of formazan-positive cells ([1]; WEL028 prior to PMA stimulation): did not affect
inhibition at 1 µM (AMPK A1/B1/G1; [2]): 13%
Inhibition at 1 µM (%) (AMPK A1/B1/G1; AMPK A1/B1/G1, 1 µM, ZLYTE, ATP Km app): 21%
inhibition at 1 µM (BMX; [2]): 16%
Inhibition at 1 µM (%) (BMX; BMX, 1 µM, ZLYTE, ATP Km app, listed as WEL028, 1 µM): 18%
inhibition at 1 µM (BMX; read-out: Inhibition at 1 µM (%), BMX, 1 µM, ZLYTE, ATP Km app): 14%
inhibition at 1 µM (CDKL5; [2]): 8%
Inhibition at 1 µM (%) (CDKL5; CDKL5, 1 µM, ZLYTE, ATP Km app, listed as WEL028, 1 µM): 9%
inhibition at 1 µM (CDKL5; read-out: Inhibition at 1 µM (%), CDKL5, 1 µM, ZLYTE, ATP Km app): 7%
inhibition at 1 µM (JAK3; [2]): 14%
Inhibition at 1 µM (%) (JAK3; JAK3, 1 µM, ZLYTE, ATP Km app, listed as WEL028, 1 µM): 10%
inhibition at 1 µM (JAK3; read-out: Inhibition at 1 µM (%), JAK3, 1 µM, ZLYTE, ATP Km app): 18%
